Structures are written as SMILES. In brackets after ≈: the same amount, converted by molar mass. Counter-ions that a name gives are not always drawn. Like-named read-outs stand apart in the source and are kept apart here.

Common to all, as to format: cell-based
The test system of assay [1] is clinically isolated Enterococcus faecalis. Briefly: In vitro antibacterial activity against clinical isolates, Experiment 2. Put shortly: (§1)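 Read-out is MIC on sensitivity test agar. Organisms are grown beforehand in sensitivity test broth, and each compound is supplied from a 1000 μg/ml standard solution diluted in sterilized distilled water.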
The test system of assay [2] is clinically isolated Enterococcus faecium. The description is as above. In outline: as §1
In assay [3] the test system is clinically isolated Staphylococcus epidermidis. Described as above. Conditions: Staphylococcus epidermidis. In outline: as §1
Assay [4] deals with Staphylococcus epidermidis IAM 1296. Briefly: MIC, Experiment 1. Particulars: IAM1296, S. epidermidis IAM 1296, Gram +, read-out: Min. inhib. concentr. (MIC). Here is the method:
The compounds of the present invention ([…] and Q) were each dissolved in dimethylsulfoxide to prepare a solution of 5000 μg/ml in concentration. The compounds of the present invention (I, J and K) and the known compound (Y) were each dissolved in sterilized distilled water to prepare a solution of 5000 μg/ml in concentration. […] The test was carried out by a method as appointed by Japan Society of Chemotherapy [cf. Chemotherapy, 29, 76-79 (1981), TOKYO]. As to Streptococcus pneumoniae and Streptococcus pyogenes, Brain heart infusion broth (manufactured by DIFCO) was used as the medium for the preculture thereof, and a heart infusion agar medium containing 5% defibrinated horse blood (manufactured by Nissui Seiyaku K. K., Japan) was used as the medium for the measurement of minimum inhibitory concentration (MIC). As to other microorganisms, a sensitivity test broth (manufactured by Nissui Seiyaku K. K.) was used as the medium for the preculture thereof, and a sensitivity test agar medium (manufactured by Nissui Seiyaku K. K.) was used as the medium for the measurement of MIC.

Where [5] appears, read: 25 clinical strains E. faecalis.
The mark [6] stands for this setting: 25 clinical strains E. faecalis, 50% of strains, read-out: MIC50.
Setting [7] is: 25 clinical strains E. faecalis, 90% of strains, read-out: MIC90.
[8] abbreviates: 25 clinical strains S. epidermidis.
The mark [9] stands for this setting: 25 clinical strains S. epidermidis, 90% of strains, read-out: MIC90.
The mark [10] stands for this setting: 25 clinical strains E. faecium, 90% of strains, read-out: MIC90.
Setting [11] is: 25 clinical strains S. epidermidis, 50% of strains, read-out: MIC50.

Turning to `CN1Cc2csc3c(C(=O)O)c(=O)c4cc(F)c(N5CCO[C@@H](CO)C5)c1c4n23` [Compound (N), 9,1-(Methylimino)methano-7-fluoro-8-[(2R)-2-hydroxymethylmorpholino]-5-oxo-5H-thiazolo[3,2-a]quinoline-4-caboxylic acid], the MIC (usually the lowest concentration that inhibits growth of the organism) in assay [1] (setting [5]) was 0.05 to 3.13 µg/mL (≈ 0.119 to 7.46 µM); in assay [2] (25 clinical strains E. faecium), 0.1 to 25 µg/mL (≈ 0.238 to 59.6 µM); in assay [3] (setting [8]) it was 0.006 to 0.78 µg/mL (≈ 0.0143 to 1.86 µM); in assay [4], 0.05 µg/mL (≈ 0.119 µM). Moreover, the figures for the MIC50 in assay [1] (setting [6]), in assay [2] and in assay [3] were 0.2 µg/mL (≈ 0.477 µM), 1.56 µg/mL (≈ 3.72 µM) and 0.025 µg/mL (≈ 0.0596 µM), respectively. The MIC90 – broadly, the lowest concentration that inhibits either 90% of growth or 90% of the strains tested, depending on the study – is 3.13 µg/mL (≈ 7.46 µM) in assay [1] (setting [7]), 6.25 µg/mL (≈ 14.9 µM) in assay [2] and 0.39 µg/mL (≈ 0.93 µM) in assay [3] (setting [9]).
As to `CN1Cc2csc3c(C(=O)O)c(=O)c4cc(F)c(N5CCC(O)CC5)c1c4n23` [Compound (L), 9,1-(Methylimino)methano-7-fluoro-8-(4-hydroxypiperidino)-5-oxo-5H-thiazolo[3,2-a]quinoline-4-carboxylic acid], the MIC is 0.05 to 1.56 µg/mL (≈ 0.124 to 3.87 µM) in assay [1] (setting [5]), 0.05 to 6.25 µg/mL (≈ 0.124 to 15.5 µM) in assay [2] (25 clinical strains E. faecium), 0.006 to 0.39 µg/mL (≈ 0.0149 to 0.967 µM) in assay [3] (setting [8]) and 0.013 µg/mL (≈ 0.0322 µM) in assay [4]. The figures for the MIC50 in assay [1] (setting [6]), in assay [2] and in assay [3] (setting [11]) were 0.05 µg/mL (≈ 0.124 µM), 0.39 µg/mL (≈ 0.967 µM) and 0.013 µg/mL (≈ 0.0322 µM), respectively. Moreover, the MIC90 in assay [1] (setting [7]) is 1.56 µg/mL (≈ 3.87 µM); in assay [2] (setting [10]), 3.13 µg/mL (≈ 7.76 µM); in assay [3] (setting [9]) it was 0.39 µg/mL (≈ 0.967 µM).
As for `CN1Cc2csc3c(C(=O)O)c(=O)c4cc(F)c(N5CCC(=O)CC5)c1c4n23` [Compound (G), 9,1-(Methylimino)methano-7-fluoro-8-(4-oxopiperidino)-5-oxo-5H-thiazolo[3,2-a]quinoline-4-carboxylic acid], the MIC was 0.025 to 1.56 µg/mL (≈ 0.0623 to 3.89 µM) in assay [1] (setting [5]), 0.025 to 3.13 µg/mL (≈ 0.0623 to 7.8 µM) in assay [2] (25 clinical strains E. faecium), 0.006 to 0.2 µg/mL (≈ 0.0149 to 0.498 µM) in assay [3] (setting [8]) and 0.013 µg/mL (≈ 0.0324 µM) in assay [4]. Moreover, the MIC50 (usually the lowest concentration that inhibits either 50% of growth or 50% of the strains tested, depending on the study) in assay [1] (setting [6]) came out at 0.05 µg/mL (≈ 0.125 µM); in assay [2], 0.39 µg/mL (≈ 0.972 µM); in assay [3] (setting [11]), 0.013 µg/mL (≈ 0.0324 µM). Further, the results for the MIC90 in assay [1] (setting [7]), in assay [2] (setting [10]) and in assay [3] (setting [9]) were 1.56 µg/mL (≈ 3.89 µM), 3.13 µg/mL (≈ 7.8 µM) and 0.2 µg/mL (≈ 0.498 µM), respectively.
As for `CN1Cc2csc3c(C(=O)O)c(=O)c4cc(F)c(N5CCO[C@H](CO)C5)c1c4n23` [Compound (M), 9,1-(Methylimino)methano-7-fluoro-8-[ (2S)-2-hydroxymethylmorpholino]-5-oxo-5H-thiazolo[3,2-a]quinoline-4-carboxylic acid], the minimum inhibitory concentration (MIC) was 0.05 to 3.13 µg/mL (≈ 0.119 to 7.46 µM) in assay [1] (setting [5]), 0.1 to 25 µg/mL (≈ 0.238 to 59.6 µM) in assay [2] (25 clinical strains E. faecium), 0.006 to 0.78 µg/mL (≈ 0.0143 to 1.86 µM) in assay [3] (setting [8]) and 0.05 µg/mL (≈ 0.119 µM) in assay [4]. Also, the MIC50 in assay [1] (setting [6]) was 0.2 µg/mL (≈ 0.477 µM); in assay [2], 1.56 µg/mL (≈ 3.72 µM); in assay [3], 0.025 µg/mL (≈ 0.0596 µM). The figures for the MIC90 in assay [1] (setting [7]), in assay [2] (setting [10]) and in assay [3] (setting [9]) were 3.13 µg/mL (≈ 7.46 µM), 3.13 µg/mL (≈ 7.46 µM) and 0.39 µg/mL (≈ 0.93 µM), respectively.
In the case of `CN1Cc2csc3c(C(=O)O)c(=O)c4cc(F)c(N5CCN(C)C(CF)C5)c1c4n23` (stereo not drawn) [Compound (K), 9,1-(methylimino)methano-7-fluoro-8-(3-fluoromethyl-4-methyl-1-piperazinyl)-5-oxo-5H-thiazolo[3,2-a]quinoline-4-carboxylic acid hydrochloride], the MIC50 in assay [1] was 0.39 µg/mL; in assay [2] it was 1.56 µg/mL; in assay [3] (setting [11]), 0.05 µg/mL. Also, the MIC90 was 6.25 µg/mL in assay [1], 12.5 µg/mL in assay [2] (setting [10]) and 0.78 µg/mL in assay [3]. For the same compound, the MIC in assay [1] (setting [5]) was 0.2 to 6.25 µg/mL; in assay [2] (25 clinical strains E. faecium), 0.2 to 12.5 µg/mL; in assay [3] (setting [8]) it was 0.05 to 1.56 µg/mL; in assay [4], 0.1 µg/mL.
Turning to `CN1Cc2csc3c(C(=O)O)c(=O)c4cc(F)c(N5CCN(C)C(CO)C5)c1c4n23` (stereo not drawn) [Compound (I), 9,1-(Methylimino)methano-7-fluoro-8-(3-hydroxymethyl-4-methyl-1-piperazinyl)-5-oxo-5H-thiazolo-[3,2-a]quinoline-4-carboxylic acid hydrochloride], the MIC50 in assay [1] came to 0.39 µg/mL; in assay [2], 3.13 µg/mL; in assay [3] (setting [11]), 0.1 µg/mL. The minimum inhibitory concentration (MIC) was 0.2 to 12.5 µg/mL in assay [1] (setting [5]), 0.2 to 25 µg/mL in assay [2] (25 clinical strains E. faecium), 0.05 to 3.13 µg/mL in assay [3] (setting [8]) and 0.2 µg/mL in assay [4]. Besides, the MIC90 in assay [1] (setting [7]) is 12.5 µg/mL; in assay [2] (setting [10]) it was 12.5 µg/mL; in assay [3] (setting [9]) it was 3.13 µg/mL.

Source of the values: patent publication US5191079A, “Quinolinecarboxylic acid derivatives” (priority 1990, dated 1993).
